Entries after “also recorded” stand apart in the source; their conditions may differ.
Experiments:
[1] = Hygroscopicity of the active pharmaceutical ingredient; format: physicochemical
[2] = Solubility / biopharmaceutical classification system class; format: physicochemical

hygroscopicity [1]: slightly hygroscopic
SMILES: C=CC(=O)N1CCC([C@@H]2CCNc3c(C(N)=O)c(-c4ccc(Oc5ccccc5)cc4)nn32)CC1 [Zanubrutinib, (S)-7-[4-(1-acryloylpiperidine)]-2-(4-phenoxyphenyl)-4,5,6,7-tetrahydropyrazolo[1,5-a] pyrimidine-3-carboxamide]
biopharmaceutical classification system class [2]: class II (low solubility, and high permeability)
solubility ([2]; active pharmaceutical ingredient): poor solubility; also recorded: pH-dependent solubility
